Measured values: patent US20210060121A1, “NOVEL ANTIBIOTICS AND METHODS OF USING THEM” (priority 2018, published 2021)
Values after ≈ are worked out from the molar mass of the structure shown.

Tests used:
[1] = tested on: Staphylococcus aureus strain ATCC43300; experiment: Wax worm survival model infected with S. aureus; assay type: in vivo, Galleria mellonella
Excerpt: FIG. 2. In vivo antibacterial activities of certain antibiotics of the invention. Efficacy of teixobactin and certain antibiotics of the invention for treating infections caused by Staphylococcus aureus strain ATCC43300 was studied in wax worm larvae (Galleria mellonella) model. PBS, control group without infection and treated with PBS: All other groups (20 each group) were infected with 10^7 CFU of S. aureus strain ATCC43300 followed by no treatment or treatment with one dose of vancomycin at 10 mg/kg (A-10) or 50 mg/kg (A-50), teixobactin at 10 mg/kg (B-10) or 50 mg/kg (B-50), or one dose of the representative analogue, Chg10-teixobactin, at 10 mg/kg (C-10) or 50 mg/kg (C-50).
Exemplary in vivo antibacterial activity: Chg10-Teixobactin was studied in wax worm survival models infected with S. aureus strain ATCC43300. Teixobactin were used as controls. […] At a dose of 50 mg/kg, Chg10-Teixobactin protected 100% infected wax worms (See FIG. 2).

MRSA and SA strains = experiment: MIC, summary over S. aureus strains; assay type: cell-based, Staphylococcus aureus
Method: (§1) Susceptibility to teixobactin and its analogues was tested on the selected Gram-positive strains using Tecan Freedom EVO high-throughput automated platform, following the standard broth dilution method as described by the Clinical and Laboratory Standards Institute ^3. MICS were determined according to CLSI guideline.

MRSA(SA11I4) = assay type: cell-based, Staphylococcus aureus
Method: as §1

SA (ATCC29213) = assay type: cell-based, Staphylococcus aureus
Method: as §1

MRSA SA88 = assay type: cell-based, Staphylococcus aureus
Method: as §1

MRSA SA86 = assay type: cell-based, Staphylococcus aureus
Method: as §1

MRSA SA11 = assay type: cell-based, Staphylococcus aureus
Method: as §1

Enterococcus ATCCET = assay type: cell-based
Method: as §1

Enterococcus ET6 = assay type: cell-based
Method: as §1

[2] = tested on: Streptococcus faecalis SF; assay type: cell-based
Method: as §1

Enterococcus ET60 = assay type: cell-based
Method: as §1

[3] = tested on: Streptococcus faecalis and Enterococcus strains; experiment: MIC, text summary over Streptococcus faecalis and Enterococcus; assay type: cell-based; details: against Streptococcus faecalis and Enterococcus strains; Table 2
Method: as §1

Minimum inhibitory concentration (MIC) MRSA(SA11I4) (MRSA(SA11I4)) [µg/mL]	Minimum inhibitory concentration (MIC) SA (ATCC29213) (SA (ATCC29213)) [µg/mL]	Minimum inhibitory concentration (MIC) MRSA SA88 (MRSA SA88) [µg/mL]	Minimum inhibitory concentration (MIC) MRSA SA86 (MRSA SA86) [µg/mL]	Minimum inhibitory concentration (MIC) MRSA SA11 (MRSA SA11) [µg/mL]	Minimum inhibitory concentration (MIC) Enterococcus ATCCET (Enterococcus ATCCET) [µg/mL]	Minimum inhibitory concentration (MIC) Enterococcus ET6 (Enterococcus ET6) [µg/mL]	Minimum inhibitory concentration (MIC) Streptococcus faecalis SF [2] [µg/mL]	Minimum inhibitory concentration (MIC) Enterococcus ET60 (Enterococcus ET60) [µg/mL]	Structure (SMILES)	Infected wax worms protected ([1]; one dose of 50 mg/kg, wax worms infected with S. aureus ATCC43300) [%]	In vivo antibacterial activities, teixobactin as control ([1]; one dose treatment, wax worm survival model, S. aureus ATCC43300)	Antibacterial activity compared with teixobactin (MRSA and SA strains; MRSA clinical isolate and MSSA ATCC29213, from MICs)	Activities, times lower than teixobactin (MRSA and SA strains; against MRSA and SA strains, Table 2)	Activities compared with teixobactin [3]
1 (≈ 0.815 µM)	0.25 (≈ 0.204 µM)	–	–	–	–	–	–	–	CC[C@@H](C)[C@@H](NC(=O)[C@@H](CCC(N)=O)NC(=O)[C@H](CO)NC(=O)[C@@H](NC(=O)[C@@H](Cc1ccccc1)NC)[C@@H](C)CC)C(=O)N[C@H](C(=O)N[C@@H](CO)C(=O)N[C@H]1C(=O)N[C@@H](C)C(=O)N[C@@H](C2CCCCC2)C(=O)N[C@@H]([C@@H](C)CC)C(=O)O[C@H]1C)[C@@H](C)CC [Chg10-teixobactin]	100	improved antibacterial activities	two times higher activities than teixobactin	–	–
2 (≈ 1.54 µM)	1 (≈ 0.771 µM)	1 (≈ 0.771 µM)	2 (≈ 1.54 µM)	0.5 (≈ 0.386 µM)	1 (≈ 0.771 µM)	1 (≈ 0.771 µM)	1 (≈ 0.771 µM)	0.5 (≈ 0.386 µM)	CC[C@@H](C)[C@@H](NC(=O)[C@@H](CCC(N)=O)NC(=O)[C@H](CCCNC(=N)N)NC(=O)[C@@H](NC(=O)[C@@H](Cc1ccccc1)NC)[C@@H](C)CC)C(=O)N[C@H](C(=O)N[C@@H](CO)C(=O)N[C@H]1C(=O)N[C@@H](C)C(=O)N[C@@H](C2CCCCC2)C(=O)N[C@@H]([C@@H](C)CC)C(=O)O[C@H]1C)[C@@H](C)CC [T87]	–	–	–	–	–
8 (≈ 6.38 µM)	4 (≈ 3.19 µM)	4 (≈ 3.19 µM)	4 (≈ 3.19 µM)	4 (≈ 3.19 µM)	2 (≈ 1.6 µM)	2 (≈ 1.6 µM)	1 (≈ 0.798 µM)	1 (≈ 0.798 µM)	CC[C@@H](C)[C@@H](NC(=O)[C@@H](CCC(N)=O)NC(=O)[C@@H](NC(=O)[C@@H](NC(=O)[C@@H](Cc1ccccc1)NC)[C@@H](C)CC)[C@@H](C)CC)C(=O)N[C@H](C(=O)N[C@@H](CO)C(=O)N[C@H]1C(=O)N[C@@H](C)C(=O)N[C@@H](C2CCCCC2)C(=O)N[C@@H]([C@@H](C)CC)C(=O)O[C@H]1C)[C@@H](C)CC [T88]	–	–	–	about 4 times	better than teixobactin
